Assay results taken from patent publication US20110251216A1, “COMPOSITIONS AND METHODS FOR INHIBITING EZH2” (The Regents of The University of Michigan, priority 2010, published 2011).

Assays:
Format in all cases: cell-based
[1] = test system: breast cell line HME infected with EZH2 adenovirus; assay: basement membrane matrix invasion assay, EZH2 overexpressing HME cells
Description: (§1) A, Dose response of isoliquiritigenin on inhibiting EZH2 mediated repression. B, A reconstituted basement membrane invasion chamber assay was used to assess the invasion of breast epithelial cell line infected with EZH2 and control adenoviruses as well as SET domain mutant EZH2 adenovirus. EZH2 treated cells were also treated with SAHA, the HDAC inhibitor and isoliquiritigenin, the small molecule inhibitor of EZH2 and the control small molecule phloretin.
For invasion assays, the breast cell lines HME was infected with EZH2 adenovirus. Forty-eight hours post-infection, cells were seeded onto the basement membrane matrix (EC matrix, Chemicon, Temecula, Calif.) present in the insert of a 24-well culture plate. Fetal bovine serum was added to the lower chamber as a chemoattractant with or without 2 doses of small molecule inhibitors. After 48 hours, the non-invading cells and EC matrix were gently removed with a cotton swab. Invasive cells located on the lower side of the chamber were measured colorimetrically by treating with 150 μl of 10% acetic acid and the absorbance measured at 560 nm using a spectrophotometer.

[2] = test system: EZH2 mediated E cadherin repression; assay: EZH2 mediated E cadherin repression, SYBR green RT-PCR and dose response
Description: A, Chemical structure of the flavonoid isoliquiritigenin. B, Quantitative SYBR green RT-PCR of EZH2 and E cadherin transcripts in cell lines over expressing EZH2 and control adenoviruses. RT-PCR on each sample was performed in duplicate, and a ratio was calculated relative to the housekeeping genes GAPDH. Transcripts were also measured in cells that were treated with isoliquiritigenin or other small molecules.
as §1

EZH2 = target: T1, EZH2 (Homo sapiens, UniProt Q15910); assay: high throughput screen, E-cadherin promoter luciferase reporter in EZH2 adenovirus infected cells; settings: final compound concentration about 5 μM, 24 hours
T1 construct: expressed in transfected cells; host or cells: Primary breast cancer cells infected with EZH2 adenovirus
Description: A high throughput screening protocol was used to identify small molecule inhibitors of EZH2. Primary breast cancer cells were transfected with the E-cadherin promoter luciferase reporter gene and infected with the EZH2 adenovirus to suppress luciferase expression 48 hours prior to compound addition. Eighteen hours prior to compound addition, cells were trypsinized and distributed into 384-well plates in 60 μl of medium using the Multidrop equipment. At time zero, compounds were transferred from 1.5 mM DMSO stocks to the cell plates in a final compound concentration of about 5 μM. […] After 24 hours, the expressed luciferase activity was measured by adding 50 μl of the medium and 10 μl of Steady-Glo luciferase reagent (Promega). Sample plates were read in the Pherastar plate reader (BMG Labtech). Each plate in the screen contains 320 compounds to be tested plus 64 control wells placed in the outer two columns on each side of the plate (>50,000 compounds are screened). […]
A high throughput screening protocol was used to identify small molecule inhibitors of EZH2. […] After 24 hours, the expressed luciferase activity was measured by adding 50 μl of the medium and 10 ul of Steady-Glo luciferase reagent (Promega). Sample plates were read in the Pherastar plate reader (BMG Labtech). […]

T1 sequence (Q15910 whole entry): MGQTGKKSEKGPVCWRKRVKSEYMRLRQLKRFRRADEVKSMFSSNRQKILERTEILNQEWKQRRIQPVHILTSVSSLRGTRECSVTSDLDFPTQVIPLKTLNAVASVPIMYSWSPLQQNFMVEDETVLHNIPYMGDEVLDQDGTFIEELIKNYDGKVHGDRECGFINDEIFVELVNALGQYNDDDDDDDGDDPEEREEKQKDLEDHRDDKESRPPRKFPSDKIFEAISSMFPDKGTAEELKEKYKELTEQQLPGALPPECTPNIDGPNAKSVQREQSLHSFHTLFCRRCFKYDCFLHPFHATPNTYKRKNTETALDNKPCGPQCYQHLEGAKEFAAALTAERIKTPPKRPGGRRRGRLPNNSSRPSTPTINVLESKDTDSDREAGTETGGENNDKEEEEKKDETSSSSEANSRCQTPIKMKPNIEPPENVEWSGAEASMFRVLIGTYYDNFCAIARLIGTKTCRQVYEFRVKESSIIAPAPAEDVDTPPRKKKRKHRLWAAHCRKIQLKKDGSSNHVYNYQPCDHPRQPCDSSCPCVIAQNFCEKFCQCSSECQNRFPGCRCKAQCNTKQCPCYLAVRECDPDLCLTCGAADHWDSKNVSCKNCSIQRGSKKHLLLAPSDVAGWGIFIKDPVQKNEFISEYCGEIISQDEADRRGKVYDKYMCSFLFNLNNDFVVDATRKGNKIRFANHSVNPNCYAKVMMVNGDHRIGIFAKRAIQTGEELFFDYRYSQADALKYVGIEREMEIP
T1 sequence (O75530 whole entry partner): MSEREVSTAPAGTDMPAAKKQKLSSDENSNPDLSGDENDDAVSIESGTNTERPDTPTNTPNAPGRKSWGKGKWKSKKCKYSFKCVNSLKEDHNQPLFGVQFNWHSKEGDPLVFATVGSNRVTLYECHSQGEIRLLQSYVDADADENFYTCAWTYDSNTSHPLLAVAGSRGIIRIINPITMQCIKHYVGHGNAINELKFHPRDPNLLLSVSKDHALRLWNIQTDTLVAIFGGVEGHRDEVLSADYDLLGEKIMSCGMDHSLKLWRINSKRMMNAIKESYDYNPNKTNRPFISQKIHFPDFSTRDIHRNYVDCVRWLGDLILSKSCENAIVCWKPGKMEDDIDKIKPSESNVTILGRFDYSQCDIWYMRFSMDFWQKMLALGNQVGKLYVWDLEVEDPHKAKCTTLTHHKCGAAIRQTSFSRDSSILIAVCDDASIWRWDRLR
T1 sequence (Q15022 whole entry partner): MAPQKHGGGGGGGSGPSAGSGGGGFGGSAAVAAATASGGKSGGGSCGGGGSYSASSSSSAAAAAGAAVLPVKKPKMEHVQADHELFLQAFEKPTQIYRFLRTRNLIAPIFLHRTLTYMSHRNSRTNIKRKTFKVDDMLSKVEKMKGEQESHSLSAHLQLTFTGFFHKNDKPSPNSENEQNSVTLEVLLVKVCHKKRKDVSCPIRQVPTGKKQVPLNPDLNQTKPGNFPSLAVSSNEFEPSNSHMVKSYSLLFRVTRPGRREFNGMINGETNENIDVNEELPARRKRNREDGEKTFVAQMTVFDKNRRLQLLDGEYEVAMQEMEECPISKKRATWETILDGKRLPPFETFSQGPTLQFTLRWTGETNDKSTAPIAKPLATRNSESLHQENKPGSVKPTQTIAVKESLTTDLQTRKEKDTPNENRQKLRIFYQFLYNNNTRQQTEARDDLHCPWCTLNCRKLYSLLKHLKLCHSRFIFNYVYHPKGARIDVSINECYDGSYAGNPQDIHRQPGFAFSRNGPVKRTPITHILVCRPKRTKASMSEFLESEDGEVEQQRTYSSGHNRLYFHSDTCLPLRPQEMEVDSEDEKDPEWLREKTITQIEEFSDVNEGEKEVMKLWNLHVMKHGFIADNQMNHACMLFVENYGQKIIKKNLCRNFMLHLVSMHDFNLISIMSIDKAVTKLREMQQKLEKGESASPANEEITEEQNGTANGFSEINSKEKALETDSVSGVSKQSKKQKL

Row | Compound | invasion mediated by EZH2 overexpression [1] | inhibition of EZH2 mediated E cadherin repression ([2]; cells over expressing EZH2, FIG. 5B) | concentration that optimally inhibits EZH2 mediated E cadherin repression ([2]; dose response, FIG. 6A) [µM] | EZH2 inhibitory activity in high throughput screen (EZH2)
1 | O=C(CCc1ccc(O)cc1)c1c(O)cc(O)cc1O [control small molecule, phloretin, reference compound] | did not inhibit the invasion | – | – | –
2 | O=C(/C=C/c1ccc(O)cc1)c1ccc(O)cc1O [isoliquiritigenin] | inhibited this invasion | significantly inhibit | 16 | potent small molecule inhibitor of EZH2 activity
